One test deals with Ba/F3 KRAS-G12V cells (Homo sapiens, UniProt P01116, G12V, cells depend on it). The experiment in a line: Proliferation inhibitory activity on Ba/F3 KRAS-G12V stably transfected cell line (CellTiter-Glo, 72 hours). In kind it is cell-based, mouse. Conditions: read-out: Ba/F3 KRAS-G12V IC50. The text has this: (§1) Test Example 1: Proliferation Inhibitory Activity on Ba/F3 KRAS-G12D, Ba/F3 KRAS-G12V Stably Transfected Cell Lines and AGS Tumor Cell Lines Containing KRAS G12D Mutations
Sequence of Ba/F3 KRAS-G12V cells (P01116 whole entry G12V): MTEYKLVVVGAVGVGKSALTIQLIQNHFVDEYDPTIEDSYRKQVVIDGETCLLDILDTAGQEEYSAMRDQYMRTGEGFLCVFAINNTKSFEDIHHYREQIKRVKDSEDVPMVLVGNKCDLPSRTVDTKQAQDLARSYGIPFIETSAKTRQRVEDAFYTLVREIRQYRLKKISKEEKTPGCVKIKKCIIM
(§2) To determine the proliferation inhibitory activity of the compounds in vitro on mouse pro-B cells Ba/F3 (Ba/F3 KRAS-G12D and Ba/F3 KRAS-G12V cells stably expressing KRAS G12D/V mutant proteins) and gastric cancer AGS cells expressing KRAS G12D mutant protein.
(§3) Cell sources. Ba/F3 KRAS-G12D and Ba/F3 KRAS-G12V were purchased from Kyinno Biotech (Beijing) Co., Ltd, Cat. No.: KC-1259 and KC-1261, respectively; AGS was purchased from Shanghai Bioleaf Biotech Co., Ltd.
(§4) Cells in the logarithmic growth phase were seeded in a 96-well plate (8000, 8000, 4000 cells/well, 90 μL/well for Ba/F3 KRAS-G12D, Ba/F3 KRAS-G12V, and AGS cells respectively), incubated at 37° C. for 1 day with 5% CO2, and then a gradient dilution of the test compound was added thereto (compounds 1 to 28 and comparative compounds). The details were as follows, the compound stock solution (10 mM) previously dissolved in DMSO was diluted to 10 gradient concentrations at a fold ratio (4 fold) and diluted to 10 fold of the target concentration in another 96-well plate with culture medium, and then 10 μL/well of the compound solution was added to the 96-well plate seeded with cells to reach the target concentration (10000, 2500, 625, 156, 39, 10, 2.5, 0.6, 0.15, 0.04 nM). Each concentration was provided with 3 duplicate wells and a blank control. After continued incubation at 37° C. and 5% CO2 for 72 hours, 50 μL of CellTiter-Glo*2.0 reagent (luciferase ATP bioluminescence detection reagent, purchased from Promega, Cat. No.: G9243) was added to each well, shaken for 2 minutes, and incubated at room temperature for 8 minutes, and then fluorescence luminescence intensity was detected (light collection time was 100 ms). The inhibitory rate of compounds with various concentrations on cell proliferation was calculated. Cell proliferation inhibition rate (%)=[(luminous intensitycontrol group containing cell culture medium for 72 hour−luminous intensitycompound group for 72 hour)/(luminous intensitycontrol group containing cell culture medium for 72 hours−luminous intensitycontrol group without cell culture medium for 72 hour)]×100%. GraphPad Prism 8.3 software was used to analyze the data, and nonlinear S-curve regression was used to fit the data to obtain a dose-effect curve, from which the IC50 value was calculated.

The target in another test is Ba/F3 KRAS-G12D cells (Homo sapiens, UniProt P01116, G12D, cells depend on it). As to the kind of experiment: Proliferation inhibitory activity on Ba/F3 KRAS-G12D stably transfected cell line (CellTiter-Glo, 72 hours). Conditions: read-out: Ba/F3 KRAS-G12D IC50. The class given is cell-based, mouse.
Sequence of Ba/F3 KRAS-G12D cells (P01116 whole entry G12D): as the sequence (P01116 whole entry G12V) above, with V12D counted along it
Source text: as §1, §2, §3, §4
(In general: ATP-based viability assays read luminescence as a measure of living cells.)

The next test has as its system AGS cells. As to the kind of experiment: Proliferation inhibitory activity on AGS tumor cell line containing KRAS G12D mutation (CellTiter-Glo, 72 hours). The class given is cell-based. The settings on record: Homo sapiens.
Source text: as §1, §2, §3, §4

In US20240368192A1, “Nitrogen-Containing Heterocyclic Compound, and Preparation Method Therefor, Intermediate Thereof, and Application Thereof” (Shanghai Allist Pharmaceuticals Co., Ltd., priority 2021, published 2024) one finds GI50 and IC50 data, which are given here for 17 molecules.

Counter-ions that a name gives are not always drawn.

With `Cc1cc(N)nc(-c2ncc3c(N4C[C@@H](N)C[C@H](O)C4)nc(OC[C@@]45CCCN4C[C@H](F)C5)nc3c2F)c1C(F)(F)F` [Compound 1, (3S,5S)-5-Amino-1-(7-(6-amino-4-methyl-3-(trifluoromethyl)pyridin-2-yl)-8-fluoro-2-(((2R,7aS)-2-fluorohexahydro-1H-pyrrolizin-7a-yl)methoxy)pyrido[4,3-d]pyrimidin-4-yl)piperidin-3-ol bis(2,2,2-trifluoroacetate)], the GI50 at Ba/F3 KRAS-G12V cells is 5 to 10 µM.

For `Cc1cc(N)nc(-c2ncc3c(N4CCC[C@H](N)C4)nc(OC[C@@]45CCCN4C[C@H](F)C5)nc3c2F)c1C(F)(F)F` [Compound 2, 6-(4-((S)-3-Aminopiperidin-1-yl)-8-fluoro-2-(((2R,7aS)-2-fluorohexahydro-1H-pyrrolizin-7a-yl)methoxy)pyrido[4,3-d]pyrimidin-7-yl)-4-methyl-5-(trifluoromethyl)pyridin-2-amine tetrakis(2,2,2-trifluoroacetate)], the GI50 at Ba/F3 KRAS-G12V cells was 5 to 10 µM. Consider `N[C@H]1CCCN(c2nc(OC[C@@]34CCCN3C[C@H](F)C4)nc3c(F)c(-c4cc(O)cc5ccccc45)ncc23)C1` [Compound 3, 4-(4-((S)-3-Aminopiperidin-1-yl)-8-fluoro-2-(((2R,7aS)-2-fluorohexahydro-1H-pyrrolizin-7a-yl)methoxy)pyrido[4,3-d]pyrimidin-7-yl)naphthalen-2-ol], for which the GI50 at Ba/F3 KRAS-G12V cells is 5 to 10 µM. Take `N[C@H]1C[C@H](O)CN(c2nc(OC[C@@]34CCCN3C[C@H](F)C4)nc3c(F)c(-c4cc(O)cc5ccccc45)ncc23)C1` [Compound 4, (3S,5S)-5-Amino-1-(8-fluoro-2-(((2R,7aS)-2-fluorohexahydro-1H-pyrrolizin-7a-yl)methoxy)-7-(3-hydroxynaphthalen-1-yl)pyrido[4,3-d]pyrimidin-4-yl)piperidin-3-ol]: the GI50 at Ba/F3 KRAS-G12V cells was 5 to 10 µM. On the same count and under the same terms, for `N[C@@H]1CCCN(c2nc(OC[C@@]34CCCN3C[C@H](F)C4)nc3c(F)c(-c4cc(O)cc5ccccc45)ncc23)C1` [Compound 5, 4-(4-((R)-3-Aminopiperidin-1-yl)-8-fluoro-2-(((2R,7aS)-2-fluorohexahydro-1H-pyrrolizin-7a-yl)methoxy)pyrido[4,3-d]pyrimidin-7-yl)naphthalen-2-ol] the value was 5 to 10 µM.

Take `C#Cc1c(F)ccc2cc(O)cc(-c3ncc4c(N5CCC[C@H](N)C5)nc(OC[C@@]56CCCN5C[C@H](F)C6)nc4c3F)c12` [Compound 7, 4-(4-((S)-3-Aminopiperidin-1-yl)-8-fluoro-2-(((2R,7aS)-2-fluorohexahydro-1H-pyrrolizin-7a-yl)methoxy)pyrido[4,3-d]pyrimidin-7-yl)-5-ethynyl-6-fluoronaphthalen-2-ol]: the GI50 on Ba/F3 KRAS-G12D cells and on Ba/F3 KRAS-G12V cells was 5 to 10 µM each time. As for `C#Cc1c(F)ccc2cc(O)cc(-c3ncc4c(N5C[C@@H](N)C[C@H](O)C5)nc(OC[C@@]56CCCN5C[C@H](F)C6)nc4c3F)c12` [Compound 8, (3S,5S)-5-Amino-1-(7-(8-ethynyl-7-fluoro-3-hydroxynaphthalen-1-yl)-8-fluoro-2-(((2R,7aS)-2-fluorohexahydro-1H-pyrrolizin-7a-yl)methoxy)pyrido[4,3-d]pyrimidin-4-yl)piperidin-3-ol], the GI50 at Ba/F3 KRAS-G12V cells lay within 5 to 10 µM. `C#Cc1c(F)ccc2cc(O)cc(-c3ncc4c(N5C[C@@H]6C[C@]6(N)C5)nc(OC[C@@]56CCCN5C[C@H](F)C6)nc4c3F)c12` [Compound 9, 4-(4-((1R,5S)-1-Amino-3-azabicyclo[3.1.0]hexan-3-yl)-8-fluoro-2-(((2R,7aS)-2-fluorohexahydro-1H-pyrrolizin-7a-yl)methoxy)pyrido[4,3-d]pyrimidin-7-yl)-5-ethynyl-6-fluoronaphthalen-2-ol]: the GI50 on Ba/F3 KRAS-G12D cells and on Ba/F3 KRAS-G12V cells was 5 to 10 µM each time. For the molecule `C#Cc1c(F)ccc2cc(O)cc(-c3ncc4c(N5C[C@@H]6[C@@H](N)[C@@H]6C5)nc(OC[C@@]56CCCN5C[C@H](F)C6)nc4c3F)c12` [Compound 11, 4-(4-((1R,5S,6R)-6-Amino-3-azabicyclo[3.1.0]hexan-3-yl)-8-fluoro-2-(((2R,7aS)-2-fluorohexahydro-1H-pyrrolizin-7a-yl)methoxy)pyrido[4,3-d]pyrimidin-7-yl)-5-ethynyl-6-fluoronaphthalen-2-ol dihydrochloride], at Ba/F3 KRAS-G12V cells, the GI50 lay within 5 to 10 µM. The same measure, in the same setting: for `C#Cc1c(F)ccc2cc(O)cc(-c3ncc4c(N5C[C@@H]6[C@H](N)[C@@H]6C5)nc(OC[C@@]56CCCN5C[C@H](F)C6)nc4c3F)c12` [Compound 12, 4-(4-((1R,5S,6S)-6-Amino-3-azabicyclo[3.1.0]hexan-3-yl)-8-fluoro-2-(((2R,7aS)-2-fluorohexahydro-1H-pyrrolizin-7a-yl)methoxy)pyrido[4,3-d]pyrimidin-7-yl)-5-ethynyl-6-fluoronaphthalen-2-ol bis(2,2,2-trifluoroacetate)] the value was 5 to 10 µM; for `C#Cc1c(F)ccc2cc(O)cc(-c3ncc4c(N5C[C@H](N)C[C@H](O)C5)nc(OC[C@@]56CCCN5C[C@H](F)C6)nc4c3F)c12` [Compound 13, (3S,5R)-5-Amino-1-(7-(8-ethynyl-7-fluoro-3-hydroxynaphthalen-1-yl)-8-fluoro-2-(((2R,7aS)-2-fluorohexahydro-1H-pyrrolizin-7a-yl)methoxy)pyrido[4,3-d]pyrimidin-4-yl)piperidin-3-ol], 5 to 10 µM; for `C#Cc1c(F)ccc2cc(O)cc(-c3ncc4c(N5C[C@H](N)C[C@@H](O)C5)nc(OC[C@@]56CCCN5C[C@H](F)C6)nc4c3F)c12` [Compound 14, (3R,5R)-5-Amino-1-(7-(8-ethynyl-7-fluoro-3-hydroxynaphthalen-1-yl)-8-fluoro-2-(((2R,7aS)-2-fluorohexahydro-1H-pyrrolizin-7a-yl)methoxy)pyrido[4,3-d]pyrimidin-4-yl)piperidin-3-ol bis(2,2,2-trifluoroacetate)], 5 to 10 µM.

Turning to `C#Cc1c(F)ccc2cc(O)cc(-c3ncc4c(N5CC[C@H](N)C5)nc(OC[C@@]56CCCN5C[C@H](F)C6)nc4c3F)c12` [Compound 15, 4-(4-((S)-3-Aminopyrrolidin-1-yl)-8-fluoro-2-(((2R,7aS)-2-fluorohexahydro-1H-pyrrolizin-7a-yl)methoxy)pyrido[4,3-d]pyrimidin-7-yl)-5-ethynyl-6-fluoronaphthalen-2-ol], the GI50 at Ba/F3 KRAS-G12D cells and at Ba/F3 KRAS-G12V cells was 5 to 10 µM throughout. Turning to `C#Cc1c(F)ccc2cc(O)cc(-c3ncc4c(N5C[C@@H](N)C[C@@H](O)C5)nc(OC[C@@]56CCCN5C[C@H](F)C6)nc4c3F)c12` [Compound 16, (3R,5S)-5-Amino-1-(7-(8-ethynyl-7-fluoro-3-hydroxynaphthalen-1-yl)-8-fluoro-2-(((2R,7aS)-2-fluorohexahydro-1H-pyrrolizin-7a-yl)methoxy)pyrido[4,3-d]pyrimidin-4-yl)piperidin-3-ol bis(2,2,2-trifluoroacetate)], the GI50 on Ba/F3 KRAS-G12V cells is 5 to 10 µM. Still for that read-out and setting: for `Cc1cc(N)nc(-c2nc(N)c3c(N4C[C@H]5CC[C@@H](C4)N5)nc(OC[C@@]45CCCN4C[C@H](F)C5)nc3c2F)c1C(F)(F)F` [Compound 19, 7-(6-Amino-4-methyl-3-(trifluoromethyl)pyridin-2-yl)-4-((1R,5S)-3,8-diazabicyclo[3.2.1]octan-3-yl)-8-fluoro-2-(((2R,7aS)-2-fluorohexahydro-1H-pyrrolizin-7a-yl)methoxy)pyrido[4,3-d]pyrimidin-5-amine] the value was 5 to 10 µM.

Take `C#Cc1c(F)ccc2cc(O)cc(-c3ncc4c(C5=C[C@@H]6CC[C@H](C5)N6)nc(OC[C@@]56CCCN5C[C@H](F)C6)nc4c3F)c12` [Compound 23, 4-(4-((1R,5S)-8-Azabicyclo[3.2.1]oct-3-en-3-yl)-8-fluoro-2-(((2R,7aS)-2-fluorohexahydro-1H-pyrrolizin-7a-yl)methoxy)pyrido[4,3-d]pyrimidin-7-yl)-5-ethynyl-6-fluoronaphthalen-2-ol]: the IC50 – broadly, the point on the concentration scale where inhibition reaches its midpoint – in the test on AGS cells turned out to be 2.5 µM. Further, the GI50 on Ba/F3 KRAS-G12V cells lay within 5 to 10 µM.

Take `[2H]C([2H])(Oc1nc(N2C[C@H]3CC[C@@H](C2)N3)c2c(Cl)nc(-c3cc(O)cc4ccc(F)c(C#C)c34)c(F)c2n1)[C@@]12CCCN1C[C@H](F)C2` [Compound 27, 4-(4-((1R,5S)-3,8-Diazabicyclo[3.2.1]octan-3-yl)-5-chloro-8-fluoro-2-(((2R,7aS)-2-fluorotetrahydro-1H-pyrrolizin-7a(5H)-yl)methoxy-d2)pyrido[4,3-d]pyrimidin-7-yl)-5-ethynyl-6-fluoronaphthalen-2-ol]: in the test with AGS cells, the IC50 stood at 0.006 µM. Besides, the GI50 on Ba/F3 KRAS-G12D cells worked out at 0.001 µM.
